Values joined by “and” are separate entries in the source; they are usually repeats but may differ in a detail not shown here. Identical values can stand only once.
Target: COX-1 (Homo sapiens, UniProt P23219)
Assay: biochemical

COX-1, sequence (P23219 24-599): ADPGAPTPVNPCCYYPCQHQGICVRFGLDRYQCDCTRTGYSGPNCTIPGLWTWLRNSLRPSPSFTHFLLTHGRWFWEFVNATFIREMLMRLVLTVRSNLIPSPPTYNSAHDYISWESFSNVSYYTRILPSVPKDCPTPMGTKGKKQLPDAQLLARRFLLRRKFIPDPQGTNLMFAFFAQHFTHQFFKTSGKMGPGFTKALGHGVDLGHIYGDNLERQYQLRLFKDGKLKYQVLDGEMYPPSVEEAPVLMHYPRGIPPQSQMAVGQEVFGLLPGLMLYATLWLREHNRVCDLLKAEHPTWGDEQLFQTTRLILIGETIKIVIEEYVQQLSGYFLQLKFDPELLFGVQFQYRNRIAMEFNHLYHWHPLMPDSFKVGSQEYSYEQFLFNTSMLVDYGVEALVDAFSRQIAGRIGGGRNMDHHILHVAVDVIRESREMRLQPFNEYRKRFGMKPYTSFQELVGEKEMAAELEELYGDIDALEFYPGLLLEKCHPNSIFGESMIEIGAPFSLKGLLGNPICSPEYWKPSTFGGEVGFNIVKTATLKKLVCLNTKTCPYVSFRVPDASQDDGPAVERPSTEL

IC50 | SMILES
54.8 µM and 68.2 µM | O=C(O)C1=Cc2cc(OC(F)(F)F)cc(CCc3ccccc3)c2OC1C(F)(F)F (centres unmarked) [Example 21o, 8-(2-phenylethyl)-6-(trifluoromethoxy)-2-(trifluoromethyl)-2H-chromene-3-carboxylic acid]
> 500 µM | COc1ccc(Br)c2c1OC(C(F)(F)F)C(C(=O)O)=C2 (centres unmarked) [Example 24a, 5-bromo-8-methoxy-2-(trifluoromethyl)-2H-chromene-3-carboxylic acid]
20.5 µM and 13.6 µM | CCCc1cc(OC(F)(F)F)cc2c1OC(C(F)(F)F)C(C(=O)O)=C2 (racemic) [Example 21i, 8-propyl-6-(trifluoromethoxy)-2-(trifluoromethyl)-2H-chromene-3-carboxylic acid]
> 100 µM | CCc1cc2c(cc1Cc1ccccc1)OC(C(F)(F)F)C(C(=O)O)=C2 (centres unmarked) [Example 42b, 7-benzyl-6-ethyl-2-(trifluoromethyl)-2H-chromene-3-carboxylic acid]
19.2 µM and 9.68 µM | O=C(O)C1=Cc2cc(OC(F)(F)F)cc(C#Cc3ccccc3)c2OC1C(F)(F)F (centres unmarked) [Example 21c, 8-(phenylethynyl)-6-(trifluoromethoxy)-2-(trifluoromethyl)-2H-chromene-3-carboxylic acid]
24.4 µM and 21.6 µM and 9.14 µM and 10.7 µM | CCc1cc(OC(F)(F)F)cc2c1OC(C(F)(F)F)C(C(=O)O)=C2 (centres unmarked) [Example 21g, 8-ethyl-6-(trifluoromethoxy)-2-(trifluoromethyl)-2H-chromene-3-carboxylic acid]
> 100 µM and 185 µM and 204 µM and 165 µM and 128 µM | Cc1cc(C)c2c(c1)C=C(C(=O)O)C(C(F)(F)F)O2 (racemic) [Example 32a, 6,8-dimethyl-2-(trifluoromethyl)-2H-chromene-3-carboxylic acid]
58.3 µM | CCCCc1cc2c(cc1Cc1ccccc1)OC(C(F)(F)F)C(C(=O)O)=C2 (centres unmarked) [Example 42d, 7-benzyl-6-butyl-2-(trifluoromethyl)-2H-chromene-3-carboxylic acid]
< 0.137 µM | CC(C)CNc1c(Cl)cc2c(c1Cl)OC(C(F)(F)F)C(C(=O)O)=C2 (centres unmarked) [Example 38c, 6,8-dichloro-7-(isobutylamino)-2-(trifluoromethyl)-2H-chromene-3-carboxylic acid]
39.2 µM | N#Cc1cc(OC(F)(F)F)cc2c1OC(C(F)(F)F)C(C(=O)O)=C2 (centres unmarked) [Example 21p, 8-cyano-6-(trifluoromethoxy)-2-(trifluoromethyl)-2H-chromene-3-carboxylic acid]
5.71 µM | CCC#Cc1cc(OC(F)(F)F)cc2c1OC(C(F)(F)F)C(C(=O)O)=C2 (centres unmarked) [Example 21q, 8-but-1-ynyl-6-(trifluoromethoxy)-2-(trifluoromethyl)-2H-chromene-3-carboxylic acid]

The remaining lines, values behind:

SMILES | IC50
CCCCN(CC)c1cc2c(cc1Cl)C=C(C(=O)O)C(C(F)(F)F)O2 (centres unmarked) [Example 8h, 7-[butyl(ethyl)amino]-6-chloro-2-(trifluoromethyl)-2H-chromene-3-carboxylic acid] | > 100 µM
CC(C)(C)CCOc1c(Cl)cc2c(c1Cl)OC(C(F)(F)F)C(C(=O)O)=C2 (centres unmarked) [Example 1d, 6,8-dichloro-7-(3,3-dimethylbutoxy)-2-(trifluoromethyl)-2H-chromene-3-carboxylic acid] | 49.2 µM
Cc1c(Cl)cc(C(C)C)c2c1C=C(C(=O)O)C(C(F)(F)F)O2 (centres unmarked) [Example 6, 6-chloro-8-isopropyl-5-methyl-2-(trifluoromethyl)-2H-chromene-3-carboxylic acid] | > 100 µM and 188 µM and 194 µM
O=C(O)C1=Cc2cc(Cl)c(C(=O)c3ccccc3)cc2OC1C(F)(F)F (centres unmarked) [Example 10, 7-benzoyl-6-chloro-2-(trifluoromethyl)-2H-chromene-3-carboxylic acid] | < 0.137 µM
Cc1c(OCC(C)(C)C)c(Cl)cc2c1OC(C(F)(F)F)C(C(=O)O)=C2 (centres unmarked) [Example 3g, 6-chloro-8-methyl-7-(neopentyloxy)-2-(trifluoromethyl)-2H-chromene-3-carboxylic acid] | 74.4 µM and 81.2 µM
O=C(O)C1=Cc2cc(Cl)c(O)c(Cl)c2OC1C(F)(F)F (centres unmarked) [Example 1a, 6,8-dichloro-7-hydroxy-2-(trifluoromethyl)-2H-chromene-3-carboxylic acid] | > 500 µM
Cc1cc(Cl)cc2c1NC(C(F)(F)F)C(C(=O)O)=C2 (centres unmarked) [Example 47, 6-chloro-8-methyl-2-(trifluoromethyl)-1,2-dihydroquinoline-3-carboxylic acid] | > 500 µM
Cc1cc2c(c(C)c1Cl)C=C(C(=O)O)C(C(F)(F)F)O2 (centres unmarked) [Example 100, 6-chloro-5,7-dimethyl-2-(trifluoromethyl)-2H-chromene-3-carboxylic acid] | 30.2 µM and 29.4 µM
COc1ccc(Cc2cc3c(cc2Cl)C=C(C(=O)O)C(C(F)(F)F)O3)cc1Cl (centres unmarked) [Example 9r, 6-chloro-7-(3-chloro-4-methoxybenzyl)-2-(trifluoromethyl)-2H-chromene-3-carboxylic acid] | 80.8 µM
CCN(CC)c1cc2c(cc1Cl)C=C(C(=O)O)C(C(F)(F)F)O2 (centres unmarked) [Example 8l, 6-chloro-7-(diethylamino)-2-(trifluoromethyl)-2H-chromene-3-carboxylic acid] | > 33.3 µM and > 11.1 µM and 180 µM and > 100 µM
CSc1cc(Cl)cc2c1OC(C(F)(F)F)C(C(=O)O)=C2 (centres unmarked) [Example 44, 6-chloro-8-(methylthio)-2-(trifluoromethyl)-2H-chromene-3-carboxylic acid] | 0.185 µM and 0.12 µM and < 0.137 µM
CCSc1cc2c(cc1Cl)C=C(C(=O)O)C(C(F)(F)F)O2 (centres unmarked) [Example 7a, 6-chloro-7-(ethylthio)-2-(trifluoromethyl)-2H-chromene-3-carboxylic acid] | > 100 µM
O=C(O)C1=Cc2cc(OCc3ccccc3)cc(Cl)c2OC1C(F)(F)F (centres unmarked) [Example 17d, 6-(benzyloxy)-8-chloro-2-(trifluoromethyl)-2H-chromene-3-carboxylic acid] | 0.365 µM and < 0.137 µM
CCC(C)(C)c1ccc2c(c1)OC(C(F)(F)F)C(C(=O)O)=C2 (centres unmarked) [Example 106, 7-tert-pentyl-2-(trifluoromethyl)-2H-chromene-3-carboxylic acid] | > 100 µM and 93 µM
Cc1cc(Cl)c(C)c2c1OC(C(F)(F)F)C(C(=O)O)=C2 (centres unmarked) [Example 105, 6-chloro-5,8-dimethyl-2-(trifluoromethyl)-2H-chromene-3-carboxylic acid] | 3.32 µM and 2 µM
O=C(O)C1=Cc2cc(Cl)c(SCc3ccccc3)cc2OC1C(F)(F)F (centres unmarked) [Example 7e, 7-(benzylthio)-6-chloro-2-(trifluoromethyl)-2H-chromene-3-carboxylic acid] | > 100 µM
O=C(O)C1=Cc2cc(OCC(F)(F)F)cc(Cl)c2OC1C(F)(F)F (centres unmarked) [Example 17c, 8-chloro-6-(2,2,2-trifluoroethoxy)-2-(trifluoromethyl)-2H-chromene-3-carboxylic acid] | 3.58 µM and 0.623 µM

SMILES | IC50
Cc1c(OCCC(C)C)c(Cl)cc2c1OC(C(F)(F)F)C(C(=O)O)=C2 (centres unmarked) [Example 3h, 6-chloro-7-(isopentyloxy)-8-methyl-2-(trifluoromethyl)-2H-chromene-3-carboxylic acid] | 17 µM and 18.5 µM and 18.4 µM
Cc1cc2c(c(C)c1Cl)C=C(C(=O)O)[C@H](C(F)(F)F)O2 [Example 101, (2R)-6-chloro-5,7-dimethyl-2-(trifluoromethyl)-2H-chromene-3-carboxylic acid] | > 100 µM and 430 µM and > 500 µM
CCOc1cc(Br)cc2c1OC(C(F)(F)F)C(C(=O)O)=C2 (centres unmarked) [Example 26, 6-bromo-8-ethoxy-2-(trifluoromethyl)-2H-chromene-3-carboxylic acid] | > 100 µM
CCC(CC)COc1cc2c(cc1Cl)C=C(C(=O)O)C(C(F)(F)F)O2 (centres unmarked) [Example 2c, 6-chloro-7-(2-ethylbutoxy)-2-(trifluoromethyl)-2H-chromene-3-carboxylic acid] | 51.6 µM
CN(Cc1ccccc1)c1cc2c(cc1Cl)C=C(C(=O)O)C(C(F)(F)F)O2 (centres unmarked) [Example 8i, 7-[benzyl(methyl)amino]-6-chloro-2-(trifluoromethyl)-2H-chromene-3-carboxylic acid] | 14.1 µM
CC(C)(C)Oc1c(Cl)cc2c(c1Cl)OC(C(F)(F)F)C(C(=O)O)=C2 (centres unmarked) [Example 1h, 7-tert-butoxy-6,8-dichloro-2-(trifluoromethyl)-2H-chromene-3-carboxylic acid] | < 0.137 µM
COc1cc(Cl)c2c(c1Cl)C=C(C(=O)O)C(C(F)(F)F)O2 (centres unmarked) [Example 18a, 5,8-dichloro-6-methoxy-2-(trifluoromethyl)-2H-chromene-3-carboxylic acid] | < 0.137 µM
O=C(O)C1=Cc2ccc(-c3ccco3)cc2OC1C(F)(F)F (centres unmarked) [Example 12, 7-(2-furyl)-2-(trifluoromethyl)-2H-chromene-3-carboxylic acid] | > 100 µM
CCCCOc1c(Cl)c(Cl)c(Cl)c2c1OC(C(F)(F)F)C(C(=O)O)=C2 (centres unmarked) [Example 28b, 8-butoxy-5,6,7-trichloro-2-(trifluoromethyl)-2H-chromene-3-carboxylic acid] | 41.7 µM
O=C(O)C1=Cc2cc(Cl)c(CCC3CCCCC3)cc2OC1C(F)(F)F (centres unmarked) [Example 9i, 6-chloro-7-(2-cyclohexylethyl)-2-(trifluoromethyl)-2H-chromene-3-carboxylic acid] | 12.7 µM and 12.5 µM
CCCCc1cc2c(cc1Cl)C=C(C(=O)O)C(C(F)(F)F)O2 (centres unmarked) [Example 9a, 7-butyl-6-chloro-2-(trifluoromethyl)-2H-chromene-3-carboxylic acid] | 9.97 µM and 5.11 µM and 9.72 µM and 5.97 µM and 8.31 µM and 9.5 µM and > 1.2 µM
O=C(O)C1=Cc2cc(Cl)c(NCc3ccccc3)cc2OC1C(F)(F)F (centres unmarked) [Example 8k, 7-(benzylamino)-6-chloro-2-(trifluoromethyl)-2H-chromene-3-carboxylic acid] | > 100 µM
O=C(O)C1=Cc2cc(Cl)c(Cc3ccccc3)cc2OC1C(F)(F)F (centres unmarked) [Example 9k, 7-benzyl-6-chloro-2-(trifluoromethyl)-2H-chromene-3-carboxylic acid] | 0.603 µM and 2.17 µM
CC(C)(C)c1cc(Cl)c2c(c1)C=C(C(=O)O)C(C(F)(F)F)O2 (centres unmarked) [Example 35, 6-tert-butyl-8-chloro-2-(trifluoromethyl)-2H-chromene-3-carboxylic acid] | 2.87 µM
CCC(C)Sc1cc2c(cc1Cl)C=C(C(=O)O)C(C(F)(F)F)O2 (centres unmarked) [Example 7g, 7-(sec-butylthio)-6-chloro-2-(trifluoromethyl)-2H-chromene-3-carboxylic acid] | 7.2 µM and 6.35 µM
O=C(O)C1=Cc2cc(Cl)c(Cc3ccc(F)c(F)c3)cc2OC1C(F)(F)F (centres unmarked) [Example 9z, 6-chloro-7-(3,4-difluorobenzyl)-2-(trifluoromethyl)-2H-chromene-3-carboxylic acid] | 27.4 µM

From patent publication US20050148627A1, “Benzopyran compounds for use in the treatment and prevention of inflammation related conditions” (priority 2003, published 2005)
